Measurements as given in patent US20090163586A1, “Bis-(Sulfonylamino) Derivatives in Therapy 205” (AstraZeneca AB, priority 2007, published 2009).

Molecular target: T1, human mPGES-1 (Homo sapiens, UniProt O14684)
T1 sequence (O14684 1-152): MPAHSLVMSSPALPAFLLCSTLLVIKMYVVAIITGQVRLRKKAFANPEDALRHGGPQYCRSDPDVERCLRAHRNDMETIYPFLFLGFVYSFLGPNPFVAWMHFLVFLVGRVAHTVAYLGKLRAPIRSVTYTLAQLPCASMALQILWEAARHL
Experiment: Microsomal prostaglandin E synthase biochemical assay
Conditions: microsome preparation containing human mPGES-1; PGH2 10.8 μM, GSH 2.5 mM, pH 6.8; PGE2 by HTRF; average of at least n=2
Experimental: Compounds were tested as inhibitors of microsomal prostaglandin E synthase activity in microsomal prostaglandin E synthase assays and whole cell assays. These assays measure prostaglandin E2 (PGE2) synthesis which is taken as a measure of prostaglandin E synthase activity. Microsomal prostaglandin E synthase biochemical assays used microsomal prostaglandin E synthase-1 in microsomal preparations. The source of the microsomes can be for example interleukin-1β-stimulated human A549 cells (which express human mPGES-1) or Sf9 cells transfected with plasmids encoding human mPGES-1 cDNA. The whole blood assay [described by Patrignani, P. et al., Journal of Pharmacology and Experimental Therapeutics, 1994, vol. 271, pp 1705-1712] was used as the whole cell assay for testing the compounds. Whole blood provides a protein and cell rich milieu for the study of biochemical efficacy of anti-inflammatory compounds such as prostaglandin synthase inhibitors. To study the inhibitory activities of these compounds, human blood was stimulated with lipopolysaccharide (LPS) for typically 16 hours to induce mPGES-1 expression, after which the concentration of produced PGE2 was measured by competitive-immuno assay (homogeneous time-resolved fluorescence, HTRF) as read out for effectiveness against mPGES-1-dependent PGE2 production.
Microsomal Prostaglandin E Synthase Biochemical Assay
A solution of test compound was added to a diluted microsome preparation containing human mPGES-1 and pre-incubated for 15 minutes in potassium phosphate buffer pH 6.8 with cofactor glutathione (GSH). Corresponding solutions without test compound were used as positive controls, and corresponding solutions without test compound and without microsomes were used as negative controls. The enzymatic reaction was then started by addition of the substrate PGH2 in an organic solution (dry acetonitrile).
The typical reaction conditions of the enzymatic reaction were thus: Test compound: ranging from 60 μM to 0.002 μM, or zero in positive and negative controls; potassium phosphate buffer pH 6.8: 50 mM; GSH: 2.5 mM; mPGES-1-containing microsomes: 2 μg/mL (sample and positive controls) or 0 μg/mL (negative control); PGH2: 10.8 μM; Acetonitrile: 7.7% (v/v); DMSO: 0.6% (v/v). The reaction was stopped after one minute by adding an acidic solution (pH 1.9) of ferric chloride and citrate (final concentrations 7 mM and 47 mM respectively), by which the PGH2 was sequestered (the PGH2 is reduced to mainly 12-hydroxy heptadecatrineoic acid (12-HHT) which is not detected by the subsequent PGE2 detection step). The resulting solution was then pH neutralized by addition of potassium phosphate buffer, prior to diluting an aliquot of the resulting solution in a weak potassium phosphate buffer (50 mM, pH 6.8) containing 0.2% BSA (w/v). [Adapted from Jacobsson et al., Proc. Natl. Acad. Sci. USA, 1999, vol. 96, pp. 7220-7225]The PGE2 formed was quantified by use of a commercial HTRF based kit (catalogue #62PG2PEC or #62P2APEC from Cisbio International). 100% activity was defined as the PGE2 production in positive controls subtracted by the PGE2 production in the negative controls. IC50 values were then determined using standard procedures.
The potency is expressed as IC50 and the value indicated is an average of at least n=2.

Compound | IC50
NS(=O)(=O)c1c(F)cccc1NS(=O)(=O)/C=C/c1ccc(Cl)c(Cl)c1 [Example 25, 2-[[(E)-2-(3,4-Dichlorophenyl)ethenyl]sulfonylamino]-6-fluoro-benzenesulfonamide] | 77 nM
NS(=O)(=O)c1ccccc1NS(=O)(=O)c1ccc2c(c1)CCC2 [Example 122, N-(2-Sulfamoylphenyl)-2,3-dihydro-1H-indene-5-sulfonamide] | 6700 nM
Cc1cc(NC(=O)Nc2ccc(Cl)cc2)ccc1S(=O)(=O)Nc1ccccc1S(N)(=O)=O [Example 176, 3-(4-Chlorophenyl)-1-[3-methyl-4-[(2-sulfamoylphenyl)sulfamoyl]phenyl]urea] | 900 nM
CNS(=O)(=O)c1ccccc1NS(=O)(=O)c1cccc(-c2ccc(Cl)c(Cl)c2)c1 [Example 239, 2-[[3-(3,4-Dichlorophenyl)phenyl]sulfonylamino]-N-methyl-benzenesulfonamide] | 6060 nM
COc1ncc(-c2cccc(S(=O)(=O)Nc3ccsc3S(N)(=O)=O)c2)cc1Cl [Example 215, 3-[3-(5-Chloro-6-methoxy-pyridin-3-yl)-benzenesulfonylamino]-thiophene-2-sulfonic acid amide] | 740 nM
COc1cc(Cl)ccc1CCS(=O)(=O)Nc1ccc(Cl)cc1S(N)(=O)=O [Example 194, 5-Chloro-2-(2-(4-chloro-2-methoxyphenyl)ethylsulfonamido)benzenesulfonamide] | 1000 nM
N#Cc1cccc(-c2cccc(S(=O)(=O)Nc3ccccc3S(N)(=O)=O)c2)c1 [Example 116, 2-[[3-(3-Cyanophenyl)phenyl]sulfonylamino]benzenesulfonamide] | 1700 nM
NS(=O)(=O)c1cc(CO)ccc1NS(=O)(=O)CCc1ccc(C#CC2CCCC2)cc1 [Example 212, 2-[2-(4-Cyclopentylethynyl-phenyl)-ethanesulfonylamino]-5-hydroxymethyl-benzenesulfonamide] | 41 nM
NS(=O)(=O)c1cc2c(cc1NS(=O)(=O)CCc1ccc(-c3ccco3)cc1)CCC2 [Example 235, 6-(2-(4-(Furan-2-yl)phenyl)ethylsulfonamido)-2,3-dihydro-1H-indene-5-sulfonamid] | 6200 nM
NS(=O)(=O)c1ccccc1NS(=O)(=O)c1cccc(-c2cncc(Cl)c2)c1 [Example 168, 2-[[3-(5-Chloropyridin-3-yl)phenyl]sulfonylamino]benzenesulfonamide] | 630 nM
COc1cc(Cl)ccc1CCS(=O)(=O)Nc1ccncc1S(N)(=O)=O [Example 206, 4-(2-(4-Chloro-2-methoxyphenyl)ethylsulfonamido)pyridine-3-sulfonamide] | 9100 nM
NS(=O)(=O)c1ccccc1NS(=O)(=O)c1ccc(Oc2ccc(Cl)cc2)cc1 [Example 175, 2-[[4-(4-Chlorophenoxy)phenyl]sulfonylamino]benzenesulfonamide] | 3700 nM
NS(=O)(=O)c1ccccc1NS(=O)(=O)c1ccc(OCc2ccccc2)cc1 [Example 127, 4-Phenylmethoxy-N-(2-sulfamoylphenyl)benzenesulfonamide] | 5100 nM
COc1ccc(Br)cc1/C=C/S(=O)(=O)Nc1cccc(F)c1S(N)(=O)=O [Example 28, 2-[[(E)-2-(5-Bromo-2-methoxy-phenyl)ethenyl]sulfonylamino]-6-fluoro-benzenesulfonamide] | 290 nM
Cc1ccc(S(N)(=O)=O)c(NS(=O)(=O)CCc2ccc(Cl)c(Cl)c2)c1 [Example 200] | 1400 nM
CSc1ccc(/C=C/S(=O)(=O)Nc2cc(F)ccc2S(N)(=O)=O)cc1 [Example 37, 4-Fluoro-2-[[(E)-2-(4-methylsulfanylphenyl)ethenyl]sulfonylamino]-benzenesulfonamide] | 160 nM
NS(=O)(=O)c1ccc(F)cc1NS(=O)(=O)/C=C/c1ccc(-c2ccco2)cc1 [Example 34, 4-Fluoro-2-[[(E)-2-[4-(2-furyl)phenyl]ethenyl]sulfonylamino]benzenesulfonamide] | 120 nM
C/C(=C\c1ccc(Cl)cc1)S(=O)(=O)Nc1c(F)cccc1S(N)(=O)=O [Example 14, 2-[[(E)-1-(4-Chlorophenyl)prop-1-en-2-yl]sulfonylamino]-3-fluoro-benzenesulfonamide] | 3100 nM

The next lines start with the values.

IC50 | Compound
420 nM | COc1ccc(Br)cc1/C=C/S(=O)(=O)Nc1cc(F)ccc1S(N)(=O)=O [Example 26, 2-[[(E)-2-(5-Bromo-2-methoxy-phenyl)ethenyl]sulfonylamino]-4-fluoro-benzenesulfonamide]
280 nM | COc1ccc(Br)cc1/C=C/S(=O)(=O)Nc1ccccc1S(N)(=O)=O [Example 29, 2-[[(E)-2-(5-Bromo-2-methoxy-phenyl)ethenyl]sulfonylamino]benzenesulfonamide]
420 nM | NS(=O)(=O)c1ccccc1NS(=O)(=O)/C=C/c1ccccc1OC(F)(F)F [Example 221, (E)-2-(2-(2-(trifluoromethoxy)phenyl)vinylsulfonamido)benzenesulfonamide]
1200 nM | CSc1ccc(/C=C/S(=O)(=O)Nc2ccccc2S(N)(=O)=O)cc1 [Example 40, 2-[[(E)-2-(4-Methylsulfanylphenyl)ethenyl]sulfonylamino]benzenesulfonamide]
130 nM | NS(=O)(=O)c1ccccc1NS(=O)(=O)/C=C/c1ccc(OC(F)(F)C(F)F)cc1 [Example 216, (E)-2-(2-(4-(1,1,2,2-tetrafluoroethoxy)phenyl)vinylsulfonamido)benzenesulfonamide]
380 nM | NS(=O)(=O)c1ccccc1NS(=O)(=O)c1cccc(Cl)c1F [Example 148, 3-Chloro-2-fluoro-N-(2-sulfamoylphenyl)benzenesulfonamide]
3500 nM | NS(=O)(=O)c1ccccc1NS(=O)(=O)c1ccc(Cl)s1 [Example 159, 5-Chloro-N-(2-sulfamoylphenyl)thiophene-2-sulfonamide]
310 nM | NS(=O)(=O)c1ccc(F)cc1NS(=O)(=O)/C=C/c1ccc(Br)cc1 [Example 95, 2-[[(E)-2-(4-Bromophenyl)ethenyl]sulfonylamino]-4-fluoro-benzenesulfonamide]
2900 nM | NS(=O)(=O)c1ccccc1NS(=O)(=O)/C=C/c1c(Cl)cccc1Cl [Example 81, 2-[[(E)-2-(2,6-Dichlorophenyl)ethenyl]sulfonylamino]benzenesulfonamide]
6100 nM | COc1ccccc1CCS(=O)(=O)Nc1ccccc1S(N)(=O)=O [Example 109, 2-[2-(2-Methoxyphenyl)ethylsulfonylamino]benzenesulfonamide]
3100 nM | NS(=O)(=O)c1ccccc1NS(=O)(=O)c1cccc(-c2cccc(C(F)(F)F)c2)c1 [Example 141, 2-[[3-[3-(Trifluoromethyl)phenyl]phenyl]sulfonylamino]benzenesulfonamide]
3800 nM | NS(=O)(=O)c1cccc(F)c1NS(=O)(=O)/C=C/c1cccc(C(F)(F)F)c1 [Example 65, 3-Fluoro-2-[[(E)-2-[3-(trifluoromethyl)phenyl]ethenyl]sulfonylamino]-benzenesulfonamide]
650 nM | NS(=O)(=O)c1ccc(F)cc1NS(=O)(=O)/C=C/c1ccc(C(F)(F)F)cc1 [Example 94, 4-Fluoro-2-[[(E)-2-[4-(trifluoromethyl)phenyl]ethenyl]sulfonylamino]-benzenesulfonamide]
2600 nM | NS(=O)(=O)c1ccccc1NS(=O)(=O)/C=C/c1ccccc1 [Example 75, 2-[[(E)-2-Phenylethenyl]sulfonylamino]benzenesulfonamide]
